{
  "source": "patent US10857201B2",
  "about": "“NNIF and nNIF-related peptides and related methods” (UNIVERSITY OF UTAH RESEARCH FOUNDATION, priority 2016, dated 2020)",
  "tested_on": "activated human platelets and PMNs",
  "assay": "Platelet-neutrophil aggregate formation",
  "assay_type": "cell-based",
  "settings": "thrombin 0.1 U/mL, LPS 100 ng/mL; peptide 1 nM",
  "method": "FIG. 6F is a graph depicting formation of platelet-neutrophil aggregates that was measured after mixing of platelets activated with thrombin (0.1 U/mL) and neutrophils activated with LPS (100 ng/mL). The dashed line indicates control aggregate formation in response to LPS stimulation of the PMNs alone. *P<0.05 for CRISPP and CRISPP-SCR compared to control. FIGS. 6A-6F are a series of graphs depicting isolated adult neutrophils or platelets that were preincubated with buffer or with CRISPP, nNIF, or CRISPP-SCR (1 nM, 1 hour for each) followed by measurement of functional responses. A minimum of three separate assays were done for each response. Error bars=SEM. Tukey's post hoc testing was applied in FIGS. 6B, 6D, 6E, and 6F.\nP-selectin translocation and surface display by activated platelets (see van Velzen J F, et al., Thromb Res. 2012; 130 (1):92-8) and formation of platelet-neutrophil aggregates (see Evangelista V, et al., Blood. 1996; 88 (11):4183-94) were measured as described.",
  "data": [
    {"substance": "M_IPPEVKFNKPFVFLMIDQNTKVPLFMGK [CRISPP, consensus peptide based on factors present in the blood of patients with cancer]", "values": [
      {"measurement": "formation of heterotypic aggregates by activated platelets and PMNs", "value": "does not inhibit"}
    ]}
  ]
}
